Assay results from patent US8592172B2, “Bioluminescent assays using cyanobenzothiazole compounds” (Promega Corporation, priority 2010, dated 2013).

Assays:
[1] = system: UGT isozymes in human hepatocytes; details: diclofenac, 15-20 minutes at 37° C.
UGT isozymes = UGT isozymes currently reported in the literature; cited from earlier work
UGT 1A1 = target: T1, UGT 1A1 (Homo sapiens, UniProt P22309); assay: Inhibition of recombinant UGT 1A1 Supersomes, compound 3138 as substrate; type: biochemical; details: 20 μM compound 3138, 0.1 mg/mL Supersomes, 90 minutes at 37° C.
T1 construct: purchased BD Gentest; host or cells: insect cells (microsomes)
T1 sequence (P22309 26-533): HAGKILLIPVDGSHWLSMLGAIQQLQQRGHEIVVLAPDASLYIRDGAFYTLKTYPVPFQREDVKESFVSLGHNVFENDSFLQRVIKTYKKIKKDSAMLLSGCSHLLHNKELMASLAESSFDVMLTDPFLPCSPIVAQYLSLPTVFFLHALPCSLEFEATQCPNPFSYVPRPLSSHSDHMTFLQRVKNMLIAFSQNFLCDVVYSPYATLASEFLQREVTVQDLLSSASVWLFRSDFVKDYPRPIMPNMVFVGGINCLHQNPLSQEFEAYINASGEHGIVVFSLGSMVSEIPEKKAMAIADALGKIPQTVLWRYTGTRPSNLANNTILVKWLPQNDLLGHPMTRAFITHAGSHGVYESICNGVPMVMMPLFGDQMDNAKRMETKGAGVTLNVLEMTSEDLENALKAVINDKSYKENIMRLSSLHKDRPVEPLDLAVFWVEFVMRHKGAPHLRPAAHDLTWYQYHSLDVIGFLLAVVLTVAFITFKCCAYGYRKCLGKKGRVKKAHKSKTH
Method: Following the UGT enzyme reaction, an equal volume of P450-Glo Luciferin Detection Reagent (LDR) (Promega) containing 15-30 mM D-cysteine-HCl.H2O (Sigma) was added and the plate was mixed and incubated at room temperature, typically for 20-30 minutes. P450-Glo Luciferin Detection Reagent contains a luciferase reaction mixture that includes a recombinant firefly luciferase, ATP and Mg^2+.
After 2 hours at 37° C., 10 μL of 50 mM D-cysteine-HCl.H2O diluted in 200 mM HEPES, pH 8.0 was added to each 40 μL UGT reaction. After 10 minute incubations, 50 μL P450-Glo LDR (Promega) was added to each well, and bioluminescence was measured.
After 90 minutes at 37° C., 40 μL of P450-Glo LDR plus 20 mM D-cysteine was added to each 40 μL reaction and mixed. After 20 minutes at room temperature, bioluminescence was measured on a luminometer.

[2] = system: UGT activity in human liver microsomes (HLM); assay: Inhibition of UGT activity in human liver microsomes, compound 3138 as substrate; type: biochemical; details: 50 μM compound 3138, 0.1 mg/mL HLM, 15 minutes at 37° C.; read-out: IC50 for HLM utilization of compound 3138
Method: To assess the ability of these compounds to inhibit UGT activity in HLM, reactions were set up as follows. […] Sulfinpyrazone, quinidine, and androsterone were used at a final concentration of 0.5 mM. 1-Naphthol, scopoletin, umbelliferne, and 7-hydroxy-4-trifluoromethyl coumarin were used at a final concentration of 1 mM. […] Valproate was used at a final concentration of 10 mM. All reactions were compared to their corresponding vehicle control sample containing either water, DMSO, or ethanol.

[3] = system: CYP450 1A2 activity in human liver microsomes; assay: Human liver microsome assay with compound 3019
Method: (§1) Equal volumes of P450-Glo LDR with 6.6 mM D-Cysteine was added into the CYP450 reactions.

[4] = target: Human recombinant CYP450 1A2 (Homo sapiens, UniProt P05177)
Human recombinant CYP450 1A2, sequence (P05177 whole entry): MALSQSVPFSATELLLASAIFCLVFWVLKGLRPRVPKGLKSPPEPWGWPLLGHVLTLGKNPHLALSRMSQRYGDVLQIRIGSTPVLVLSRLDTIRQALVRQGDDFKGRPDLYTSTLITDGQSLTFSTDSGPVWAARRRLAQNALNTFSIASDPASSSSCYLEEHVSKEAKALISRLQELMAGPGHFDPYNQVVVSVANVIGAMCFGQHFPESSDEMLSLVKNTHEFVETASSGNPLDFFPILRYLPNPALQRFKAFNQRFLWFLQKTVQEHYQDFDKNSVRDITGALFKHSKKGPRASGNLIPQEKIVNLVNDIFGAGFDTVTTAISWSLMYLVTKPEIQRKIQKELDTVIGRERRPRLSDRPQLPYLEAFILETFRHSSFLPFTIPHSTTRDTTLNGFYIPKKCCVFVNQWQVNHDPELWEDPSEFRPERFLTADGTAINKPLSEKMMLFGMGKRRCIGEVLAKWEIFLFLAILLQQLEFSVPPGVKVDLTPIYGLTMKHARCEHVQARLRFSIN
Method: as §1

CYP1A2 = assay: Non-lytic cell-based assay with human hepatocytes, compound 3019; details: non-lytic, 3 μM compound 3019, 1 hour
Method: Human cryopreserved hepatocytes (Celsis lot RTM) were thawed and seeded in hepatocyte culture medium in wells of a collagen-coated, 96-well culture plate at ˜70,000 cells per well and kept at 37° C. in standard cell culture incubator with 5% CO2. The cells were then treated for 48 hours with 100 μM omeprazole or vehicle control (0.1% dimethylsulfoxide) dissolved in hepatocytes culture medium (n═3 for each treatment, mean values and standard deviations are shown). […] 50 μl of the KH incubation buffer was then removed from each well and transferred to a well of a white, 96-well luminometer plate (Costar) where it was also combined with 50 μl of P450-Glo LDR containing 6.6 mM D-cysteine.

In the case of O=C(O)Cc1ccccc1Nc1c(Cl)cccc1Cl [Diclofenac], the “inhibition of compound 3138 conversion in hepatocytes” value [1] is listed as “inhibited”, the “Isozymes Modulated” value (UGT isozymes) is listed as “Inhibits most isozymes” and the IC50 (UGT 1A1) is listed as 232 µM. It also gave an IC50 [2] of 60 µM.
For CC(C)OC(OC(C)C)C1CSC(c2nc3ccc(O)cc3s2)=N1 (stereo not shown) [Compound 3019], the “activity with compound 3019 in human liver microsomes” value [3] was “substantial activity”, the “substrate status for CYP450 1A2” value [4] was “is indeed a CYP450 1A2 substrate” and the “entry of substrate into cells” value (CYP1A2) was “entered the cell”.
